Measurements: patent US6737383B1, “Herbicidal oxadiazolidines” (priority 1999, dated 2004)

Key:
Conditions in all cases: Preemergence
[1] = system: purple nutsedge; assay: Test B pre/postemergence purple nutsedge; assay type: in vivo, Cyperus rotundus
Summary of the method: (§1)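 Response is a visual 0-to-10 score relative to untreated plants, where 0 means no effect and 10 means complete control, taken twelve to sixteen days after application. Treatments went onto soil at planting and onto foliage of 1- to 4-leaf plants, using a surfactant-containing non-phytotoxic solvent.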

[2] = system: velvetleaf; assay: Test B pre/postemergence velvetleaf; assay type: in vivo, Abutilon theophrasti
Summary of the method: as §1

[3] = system: wheat; assay: Test B pre/postemergence wheat; assay type: in vivo, Triticum aestivum
Summary of the method: as §1

[4] = system: giant foxtail; assay: Test B pre/postemergence giant foxtail; assay type: in vivo, Setaria faberii
Summary of the method: as §1

[5] = system: pigweed; assay: Test B pre/postemergence pigweed; assay type: in vivo, Amaranthus retroflexus
Summary of the method: as §1

[6] = system: sugar beet; assay: Test B pre/postemergence sugar beet; assay type: in vivo, Beta vulgaris
Summary of the method: as §1

[7] = system: crabgrass; assay: Test B pre/postemergence crabgrass; assay type: in vivo, Digitaria sanguinalis
Summary of the method: as §1

[8] = system: morningglory; assay: Test B pre/postemergence morningglory; assay type: in vivo, Ipomoea hederacea
Summary of the method: as §1

[9] = system: soybean; assay: Test B pre/postemergence soybean; assay type: in vivo, Glycine max
Summary of the method: as §1

[10] = system: bedstraw; assay: Test B pre/postemergence bedstraw; assay type: in vivo, Galium aparine
Summary of the method: as §1

[11] = system: cocklebur; assay: Test B pre/postemergence cocklebur; assay type: in vivo, Xanthium strumarium
Summary of the method: as §1

[12] = system: rape; assay: Test B pre/postemergence rape; assay type: in vivo, Brassica napus
Summary of the method: as §1

[13] = system: wild oat; assay: Test B pre/postemergence wild oat; assay type: in vivo, Avena fatua
Summary of the method: as §1

[14] = system: corn; assay: Test B pre/postemergence corn; assay type: in vivo, Zea mays
Summary of the method: as §1

[15] = system: blackgrass; assay: Test B pre/postemergence blackgrass; assay type: in vivo, Alopecurus myosuroides
Summary of the method: as §1

[16] = system: surinam grass; assay: Test B pre/postemergence surinam grass; assay type: in vivo, Brachiaria decumbens
Summary of the method: as §1

[17] = Rate 125 g/ha, scale of 0 to 10 where 0 is no effect and 10 is complete control
[18] = Rate 250 g/ha, scale 0 (no effect) to 10 (complete control)
[19] = Rate 500 g/ha, scale 0 to 10 (0 no effect, 10 complete control)

CCOC(CC)n1c(=O)on(C(=O)N(c2ccc(F)cc2)C(C)C)c1=O (stereo not shown) [Compound 742]
0: Plant response rating, Nutsedge [1, 17] | Nutsedge plant response rating [1, 18] | Nutsedge plant response rating ([1]; Rate 62 g/ha, scale 0 to 10) | Nutsedge plant response rating [1, 19] | Plant response rating, Velvetleaf [2, 17] | Velvetleaf plant response rating [2, 18] | Velvetleaf plant response rating ([2]; Rate 62 g/ha, scale 0 to 10) | Velvetleaf plant response rating [2, 19] | Plant response rating, Wheat [3, 17] | Wheat plant response rating [3, 18] | Wheat plant response rating ([3]; Rate 62 g/ha, scale 0 to 10) | Wheat plant response rating [3, 19] | Plant response rating, Giant foxtail [4, 17] | Giant foxtail plant response rating [4, 18] | Giant foxtail plant response rating ([4]; Rate 62 g/ha, scale 0 to 10) | Giant foxtail plant response rating [4, 19] | Plant response rating, Redroot pigweed [5, 17] | Redroot pigweed plant response rating [5, 18] | Redroot pigweed plant response rating ([5]; Rate 62 g/ha, scale 0 to 10) | Redroot pigweed plant response rating [5, 19] | Plant response rating, Sugarbeets [6, 17] | Sugarbeets plant response rating [6, 18] | Sugarbeets plant response rating ([6]; Rate 62 g/ha, scale 0 to 10) | Sugarbeets plant response rating [6, 19] | Plant response rating, Crabgrass [7, 17] | Crabgrass plant response rating [7, 18] | Crabgrass plant response rating ([7]; Rate 62 g/ha, scale 0 to 10) | Crabgrass plant response rating [7, 19] | Plant response rating, Morningglory [8, 17] | Morningglory plant response rating [8, 18] | Morningglory plant response rating ([8]; Rate 62 g/ha, scale 0 to 10) | Morningglory plant response rating [8, 19] | Plant response rating, Soybean [9, 17] | Soybean plant response rating [9, 18] | Soybean plant response rating ([9]; Rate 62 g/ha, scale 0 to 10) | Soybean plant response rating [9, 19] | Plant response rating, Bedstraw [10, 17] | Bedstraw plant response rating [10, 18] | Bedstraw plant response rating ([10]; Rate 62 g/ha, scale 0 to 10) | Bedstraw plant response rating [10, 19] | Plant response rating, Cocklebur [11, 17] | Cocklebur plant response rating [11, 18] | Cocklebur plant response rating ([11]; Rate 62 g/ha, scale 0 to 10) | Cocklebur plant response rating [11, 19] | Plant response rating, Rape [12, 17] | Rape plant response rating [12, 18] | Rape plant response rating ([12]; Rate 62 g/ha, scale 0 to 10) | Rape plant response rating [12, 19] | Plant response rating, Wild oats [13, 17] | Wild oats plant response rating [13, 18] | Wild oats plant response rating ([13]; Rate 62 g/ha, scale 0 to 10) | Wild oats plant response rating [13, 19] | Plant response rating, Corn [14, 17] | Corn plant response rating [14, 18] | Corn plant response rating ([14]; Rate 62 g/ha, scale 0 to 10) | Corn plant response rating [14, 19] | Plant response rating, Blackgrass [15, 17] | Blackgrass plant response rating [15, 18] | Blackgrass plant response rating ([15]; Rate 62 g/ha, scale 0 to 10) | Blackgrass plant response rating [15, 19] | B. signalgrass plant response rating ([16]; Rate 62 g/ha, scale of 0 to 10 where 0 is no effect and 10 is complete control) | Plant response rating, B. signalgrass [16, 17] | B. signalgrass plant response rating [16, 18] | B. signalgrass plant response rating [16, 19]
